From patent publication US20200216416A1, “QUINOLINE COMPOUNDS AS INHIBITORS OF TAM AND MET KINASES” (Array BioPharma Inc., priority 2019, published 2020)

Target: T1, MDR1 transfected LLC-PK1 cells (Homo sapiens, UniProt P08183)
T1 construct: expressed in transfected cells; host or cells: LLC-PK1
Experiment: MDR1 LLC-PK1 permeability assay
Assay type: in vitro ADME
Details: efflux ratio = Papp(B-A)/Papp(A-B)
Method in brief: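 MDR1-transfected LLC-PK1 monolayers dosed at 1 μM test article (1% organic) in A→B and B→A directions, in triplicate, for 2 h at 37 °C; lucifer yellow monitored monolayer integrity. Compound measured by LC-MS/MS against labetalol internal standard; Papp averaged per replicate, efflux ratio = Papp(B−A)/Papp(A−B).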

T1 sequence (P08183 whole entry): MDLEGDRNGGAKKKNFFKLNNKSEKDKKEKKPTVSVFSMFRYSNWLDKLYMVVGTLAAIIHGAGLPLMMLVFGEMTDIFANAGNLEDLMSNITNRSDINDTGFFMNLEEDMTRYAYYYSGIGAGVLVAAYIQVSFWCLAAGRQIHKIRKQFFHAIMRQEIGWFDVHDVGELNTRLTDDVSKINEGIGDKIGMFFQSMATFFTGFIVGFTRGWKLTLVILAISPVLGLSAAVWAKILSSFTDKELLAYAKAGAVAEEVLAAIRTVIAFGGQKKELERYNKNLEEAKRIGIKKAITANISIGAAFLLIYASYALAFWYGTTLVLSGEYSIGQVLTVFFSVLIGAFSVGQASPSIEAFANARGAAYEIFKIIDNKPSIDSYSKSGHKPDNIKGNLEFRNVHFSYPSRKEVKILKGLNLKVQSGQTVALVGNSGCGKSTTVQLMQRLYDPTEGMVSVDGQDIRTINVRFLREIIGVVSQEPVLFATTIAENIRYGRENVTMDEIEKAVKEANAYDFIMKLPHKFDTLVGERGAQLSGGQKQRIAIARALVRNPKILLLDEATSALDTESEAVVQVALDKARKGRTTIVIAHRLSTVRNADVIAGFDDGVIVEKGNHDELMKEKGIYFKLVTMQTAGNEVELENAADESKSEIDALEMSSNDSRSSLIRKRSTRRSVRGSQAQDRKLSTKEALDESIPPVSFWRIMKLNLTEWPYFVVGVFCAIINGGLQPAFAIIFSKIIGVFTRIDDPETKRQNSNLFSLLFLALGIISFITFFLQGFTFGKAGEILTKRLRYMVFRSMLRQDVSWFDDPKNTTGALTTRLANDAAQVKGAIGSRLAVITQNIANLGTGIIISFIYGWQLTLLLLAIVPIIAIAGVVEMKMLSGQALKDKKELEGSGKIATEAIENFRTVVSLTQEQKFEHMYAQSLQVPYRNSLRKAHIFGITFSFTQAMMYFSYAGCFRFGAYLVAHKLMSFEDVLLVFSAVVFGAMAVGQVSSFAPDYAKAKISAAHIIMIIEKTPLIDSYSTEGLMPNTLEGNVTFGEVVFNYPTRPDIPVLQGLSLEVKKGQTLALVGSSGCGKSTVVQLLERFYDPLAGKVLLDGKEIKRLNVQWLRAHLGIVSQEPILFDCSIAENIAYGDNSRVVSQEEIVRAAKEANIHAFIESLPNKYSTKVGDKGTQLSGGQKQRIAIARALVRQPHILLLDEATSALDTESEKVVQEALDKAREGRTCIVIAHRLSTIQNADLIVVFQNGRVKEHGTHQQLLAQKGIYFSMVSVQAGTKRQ

- MDR1 Pe Ratio: 3.5
Compound: COc1cc2nccc(Oc3ccc(NC(=O)c4cn(CCC(C)C)cc(-c5ccc(F)c(F)c5)c4=O)nc3)c2cc1OC [Example 35, 5-(3,4-difluorophenyl)-N-(5-((6,7-dimethoxyquinolin-4yl)oxy)pyridin-2-yl)-1-isopentyl-4-oxo-1,4-dihydropyridine-3-carboxamide]
